Calls of active or inactive are those of the source. The calls are words filed in the database; no cut-off is given here.
How the values were obtained:
Pseudomonas aeruginosa [1] = assay: Antimicrobial activity against Pseudomonas aeruginosa 27060deltaR1 harboring deletion of R1 plasmid in presence of human apo-transferrin by broth microdilution method; format: functional
Pseudomonas aeruginosa [2] = assay: Antimicrobial activity against Pseudomonas aeruginosa SR24 in presence of human apo-transferrin by broth microdilution method; format: functional
Escherichia coli = assay: Antimicrobial activity against SHV-4 producing Escherichia coli ATCC BAA-200 in presence of human apo-transferrin by broth microdilution method; format: functional
[3] = Iron chelating activity in presence of cetyltrimethylammonium bromide at pH 5.5 by chromeazurol B dye based spectrophotometric method
Pseudomonas aeruginosa [4] = assay: Antimicrobial activity against AmpC overproducing Pseudomonas aeruginosa SR24-12 in presence of human apo-transferrin by broth microdilution method; format: functional
Pseudomonas aeruginosa [5] = assay: Antimicrobial activity against IMP-1 producing Pseudomonas aeruginosa SR27060 in presence of human apo-transferrin by broth microdilution method; format: functional
[6] = test system: Stenotrophomonas maltophilia; assay: Antimicrobial activity against L-1 producing Stenotrophomonas maltophilia SR21970 in presence of human apo-transferrin by broth microdilution method; format: functional
Acinetobacter baumannii = assay: Antimicrobial activity against OXA-23/OXA-58 producing Acinetobacter baumannii SR27323 in presence of human apo-transferrin by broth microdilution method; format: functional
Pseudomonas aeruginosa [7] = assay: Antimicrobial activity against IMP-1 producing Pseudomonas aeruginosa SR27001 in presence of human apo-transferrin by broth microdilution method; format: functional
Klebsiella pneumoniae = assay: Antimicrobial activity against KPC-2 producing Klebsiella pneumoniae ATCC BAA-1705 in presence of human apo-transferrin by broth microdilution method; format: functional
Pseudomonas aeruginosa [8] = assay: Antibacterial activity against Pseudomonas aeruginosa SR27001 infected in Jcl:ICR mouse systemic infection model assessed as increase in mouse survival rate administered iv 1 to 5 hrs post infection measured over 7 days; format: functional
Pseudomonas aeruginosa [9] = assay: Antimicrobial activity against VIM-2 producing Pseudomonas aeruginosa SBRKM-28 in presence of human apo-transferrin by broth microdilution method; format: functional

Row | Compound | MIC (Pseudomonas aeruginosa [1]) | MIC (Pseudomonas aeruginosa [2]) | MIC (Escherichia coli) | Activity [3] | MIC (Pseudomonas aeruginosa [4]) | MIC (Pseudomonas aeruginosa [5]) | MIC [6] | MIC (Acinetobacter baumannii) | MIC (Pseudomonas aeruginosa [7]) | MIC (Klebsiella pneumoniae) | ED50 (Pseudomonas aeruginosa [8]) | MIC (Pseudomonas aeruginosa [9])
1 | CC(C)(O/N=C(\C(=O)N[C@@H]1C(=O)N2C(C(=O)[O-])=C(C[N+]3(CCNC(=O)c4ccc(O)c(O)c4O)CCCC3)CS[C@H]12)c1csc(N)n1)C(=O)O | 4 µg/mL | 1 µg/mL | 32 µg/mL | Active | 2 µg/mL | 16 µg/mL | 8 µg/mL | 32 µg/mL | 32 µg/mL | 1 µg/mL | – | –
2 | CC(C)(O/N=C(\C(=O)N[C@@H]1C(=O)N2C(C(=O)[O-])=C(C[N+]3(CCNC(=O)c4cc(=O)c(O)cn4O)CCCC3)CS[C@H]12)c1csc(N)n1)C(=O)O | 1 µg/mL | 0.125 µg/mL | 1 µg/mL | – | 0.5 µg/mL | 4 µg/mL | 0.125 µg/mL | 0.5 µg/mL | 4 µg/mL | 0.063 µg/mL | > 30 mg/kg | 0.063 µg/mL
3 | CC(C)(O/N=C(\C(=O)N[C@@H]1C(=O)N2C(C(=O)[O-])=C(C[N+]3(CCNC(=O)c4ccc(O)c(O)c4Cl)CCCC3)CS[C@H]12)c1nc(N)sc1Cl)C(=O)O | 1 µg/mL | 0.25 µg/mL | 1 µg/mL | – | 0.5 µg/mL | 1 µg/mL | 2 µg/mL | 2 µg/mL | 1 µg/mL | 0.063 µg/mL | – | 0.125 µg/mL
4 | Nc1nc(/C(=N/O[C@H](C(=O)O)c2ccccc2)C(=O)N[C@@H]2C(=O)N3C(C(=O)[O-])=C(C[N+]4(CCNC(=O)c5ccc(O)c(O)c5Cl)CCCC4)CS[C@H]23)cs1 | 0.5 µg/mL | 0.25 µg/mL | 0.5 µg/mL | – | 0.25 µg/mL | 4 µg/mL | 0.25 µg/mL | 0.25 µg/mL | 0.5 µg/mL | 0.031 µg/mL | – | 0.125 µg/mL
5 | CC(C)(O/N=C(\C(=O)N[C@@H]1C(=O)N2C(C(=O)[O-])=C(C[N+](C)(C)[C@@H]3CCN(C(=O)c4ccc(O)c(O)c4Cl)C3)CS[C@H]12)c1csc(N)n1)C(=O)O | 1 µg/mL | 0.25 µg/mL | 2 µg/mL | – | 0.5 µg/mL | 2 µg/mL | 1 µg/mL | 1 µg/mL | 2 µg/mL | 0.25 µg/mL | 5.48 mg/kg | 0.25 µg/mL
6 | Nc1nc(/C(=N/O[C@@H](CC(=O)O)C(=O)O)C(=O)N[C@@H]2C(=O)N3C(C(=O)[O-])=C(C[N+]4(CCNC(=O)c5ccc(O)c(O)c5Cl)CCCC4)CS[C@H]23)cs1 | 0.5 µg/mL | 0.25 µg/mL | 1 µg/mL | – | 0.25 µg/mL | 1 µg/mL | 0.25 µg/mL | 1 µg/mL | 1 µg/mL | 0.063 µg/mL | – | 0.063 µg/mL
7 | CC(C)(O/N=C(\C(=O)N[C@@H]1C(=O)N2C(C(=O)[O-])=C(C[N+]3(CCNC(=O)c4ccc(O)c(O)c4F)CCCC3)CS[C@H]12)c1csc(N)n1)C(=O)O | 1 µg/mL | 0.125 µg/mL | 0.5 µg/mL | – | 0.125 µg/mL | 1 µg/mL | 0.25 µg/mL | 0.5 µg/mL | 2 µg/mL | ≤ 0.031 µg/mL | 5.48 mg/kg | –
8 | CC(C)(O/N=C(\C(=O)N[C@@H]1C(=O)N2C(C(=O)[O-])=C(C[N@+]3(C)[C@@H]4CC[C@H]3C[C@@H](NC(=O)c3ccc(O)c(O)c3Cl)C4)CS[C@H]12)c1csc(N)n1)C(=O)O | 0.5 µg/mL | 0.25 µg/mL | 2 µg/mL | – | 0.5 µg/mL | 1 µg/mL | 1 µg/mL | 1 µg/mL | 0.5 µg/mL | 0.063 µg/mL | 10.5 mg/kg | 0.063 µg/mL
9 | CC(C)(O/N=C(\C(=O)N[C@@H]1C(=O)N2C(C(=O)[O-])=C(C[n+]3cc(NC(=O)c4ccc(O)c(O)c4Cl)c4n3CCN4)CS[C@H]12)c1csc(N)n1)C(=O)O | 0.5 µg/mL | 0.25 µg/mL | 1 µg/mL | – | 0.5 µg/mL | 16 µg/mL | > 16 µg/mL | 0.5 µg/mL | 16 µg/mL | 0.125 µg/mL | – | 0.5 µg/mL
10 | CO/N=C(\C(=O)N[C@@H]1C(=O)N2C(C(=O)[O-])=C(C[N+]3(C)CCCC3)CS[C@H]12)c1csc(N)n1 | 16 µg/mL | 0.5 µg/mL | 4 µg/mL | – | 16 µg/mL | > 64 µg/mL | 64 µg/mL | 16 µg/mL | > 64 µg/mL | 32 µg/mL | > 100 mg/kg | 16 µg/mL
11 | Nc1nc(/C(=N/OCc2cccc(C(=O)O)c2)C(=O)N[C@@H]2C(=O)N3C(C(=O)[O-])=C(C[N+]4(CCNC(=O)c5ccc(O)c(O)c5Cl)CCCC4)CS[C@H]23)cs1 | 2 µg/mL | 0.25 µg/mL | 16 µg/mL | – | 0.5 µg/mL | 8 µg/mL | 2 µg/mL | 0.5 µg/mL | 1 µg/mL | 2 µg/mL | – | 0.125 µg/mL
12 | Nc1nc(/C(=N/OCC(=O)O)C(=O)N[C@@H]2C(=O)N3C(C(=O)[O-])=C(C[N+]4(CCNC(=O)c5ccc(O)c(O)c5Cl)CCCC4)CS[C@H]23)cs1 | 2 µg/mL | 0.125 µg/mL | 32 µg/mL | – | 0.5 µg/mL | 4 µg/mL | 1 µg/mL | 0.5 µg/mL | 2 µg/mL | 0.25 µg/mL | 9.84 mg/kg | 0.125 µg/mL
13 | CC(C)(O/N=C(\C(=O)N[C@@H]1C(=O)N2C(C(=O)[O-])=C(C[N+]3(CCC(=O)Nc4ccc(O)c(O)c4Cl)CCCC3)CS[C@H]12)c1csc(N)n1)C(=O)O | 1 µg/mL | 0.25 µg/mL | 2 µg/mL | – | 0.5 µg/mL | 2 µg/mL | 1 µg/mL | 2 µg/mL | 2 µg/mL | 0.25 µg/mL | – | 0.25 µg/mL
14 | CC(C)(O/N=C(\C(=O)N[C@@H]1C(=O)N2C(C(=O)[O-])=C(C[N+]34CCC(CNC(=O)c5ccc(O)c(O)c5Cl)(CC3)CC4)CS[C@H]12)c1csc(N)n1)C(=O)O | 1 µg/mL | 0.25 µg/mL | 2 µg/mL | – | 0.5 µg/mL | 4 µg/mL | 0.25 µg/mL | 1 µg/mL | 2 µg/mL | 0.063 µg/mL | 9.42 mg/kg | 0.125 µg/mL
15 | CC(C)(O/N=C(\C(=O)N[C@@H]1C(=O)N2C(C(=O)[O-])=C(C[N+]3(CCNC(=O)c4cc(O)c(O)c(Cl)c4)CCCC3)CS[C@H]12)c1csc(N)n1)C(=O)O | 0.25 µg/mL | 0.063 µg/mL | 0.5 µg/mL | – | 0.125 µg/mL | 1 µg/mL | 0.25 µg/mL | 0.25 µg/mL | 1 µg/mL | ≤ 0.031 µg/mL | 10.2 mg/kg | –
16 | CC(C)(O/N=C(\C(=O)N[C@@H]1C(=O)N2C(C(=O)[O-])=C(C[N+]3(CCNC(=O)c4cc(O)c(O)cc4Cl)CCCC3)CS[C@H]12)c1csc(N)n1)C(=O)O | 1 µg/mL | 0.063 µg/mL | 2 µg/mL | – | 0.125 µg/mL | 2 µg/mL | 0.25 µg/mL | 1 µg/mL | 2 µg/mL | ≤ 0.031 µg/mL | 10.2 mg/kg | –
17 | C[C@@H](O/N=C(\C(=O)N[C@@H]1C(=O)N2C(C(=O)[O-])=C(C[N+]3(CCNC(=O)c4ccc(O)c(O)c4Cl)CCCC3)CS[C@H]12)c1csc(N)n1)C(=O)O | 1 µg/mL | 0.25 µg/mL | 1 µg/mL | – | 0.5 µg/mL | 2 µg/mL | 0.5 µg/mL | 1 µg/mL | 1 µg/mL | 0.063 µg/mL | 5.48 mg/kg | 0.125 µg/mL
18 | CC(C)(O/N=C(\C(=O)N[C@@H]1C(=O)N2C(C(=O)[O-])=C(C[n+]3ccc(NC(=O)c4ccc(O)c(O)c4Cl)cc3)CS[C@H]12)c1csc(N)n1)C(=O)O | 0.5 µg/mL | 0.063 µg/mL | 2 µg/mL | – | 0.25 µg/mL | 2 µg/mL | 1 µg/mL | 2 µg/mL | 2 µg/mL | 0.25 µg/mL | – | 0.125 µg/mL
19 | CC(C)(O/N=C(\C(=O)N[C@@H]1C(=O)N2C(C(=O)[O-])=C(C[N@+]34CCC[C@H]3CN(C(=O)c3ccc(O)c(O)c3Cl)CC4)CS[C@H]12)c1csc(N)n1)C(=O)O | 1 µg/mL | 0.25 µg/mL | 2 µg/mL | – | 0.5 µg/mL | 4 µg/mL | 0.5 µg/mL | 2 µg/mL | 0.5 µg/mL | 0.063 µg/mL | – | 0.25 µg/mL
20 | C[C@H](O/N=C(\C(=O)N[C@@H]1C(=O)N2C(C(=O)[O-])=C(C[N+]3(CCNC(=O)c4ccc(O)c(O)c4Cl)CCCC3)CS[C@H]12)c1csc(N)n1)C(=O)O | 1 µg/mL | 0.25 µg/mL | 4 µg/mL | – | 0.25 µg/mL | 2 µg/mL | 0.5 µg/mL | 1 µg/mL | 1 µg/mL | 0.063 µg/mL | – | 0.125 µg/mL
21 | CC(C)(O/N=C(\C(=O)N[C@@H]1C(=O)N2C(C(=O)[O-])=C(C[N+](C)(C)CCNC(=O)c3ccc(O)c(O)c3Cl)CS[C@H]12)c1csc(N)n1)C(=O)O | 2 µg/mL | 0.063 µg/mL | > 32 µg/mL | – | 4 µg/mL | 32 µg/mL | > 32 µg/mL | 0.5 µg/mL | > 32 µg/mL | 0.5 µg/mL | – | 0.25 µg/mL

From ChEMBL document CHEMBL4152326 (2018)
